For series [1] the following is noted: Crystal; DSC.
The nature of series [2]: Molar enthalpy of transition or fusion. The note with it: Crystal; DSC.

Numbers after ± are expanded uncertainties.

With `Oc1ccc(Cl)c2cccnc12` [5-chloro-8-hydroxyquinoline], the Triple point temperature in series [1] is 395.48 ± 1.2 K. The “Molar enthalpy of transition or fusion” value in series [2] amounted to 25.3 ± 0.95 kJ/mol.
For `Oc1c(Cl)cc(Cl)c2cccnc12` [5,7-dichloro-8-hydroxyquinoline] the same measures were 452.15 ± 1.2 K and 39.8 ± 1.1 kJ/mol.

Source of the values: the NIST ThermoML archive (doi:10.1021/acs.jced.9b00028).
